Data: ChEMBL document CHEMBL2413058, “Structure-cytotoxic activity relationship of sesquilignan, morinol A” (Bioorg Med Chem Lett, 2013)

Legend:
[1] = tested on: HL-60; assay: Cytotoxicity against human HL60 cells after 48 hrs by WST8 assay; format: functional, cell-based; settings: HL-60, 48 h
[2] = tested on: HeLa; assay: Cytotoxicity against human HeLa cells after 48 hrs by WST8 assay; format: functional, cell-based
[3] = tested on: HeLa; assay: Cytotoxicity against human HeLa cells at 100 uM after 48 hrs by WST8 assay; format: functional
[4] = tested on: HeLa; assay: Ratio of IC50 for human HeLa cells to IC50 for human HL60 cells; format: functional
[5] = tested on: HL-60; assay: Cytotoxicity against human HL60 cells at 100 uM after 48 hrs by WST8 assay; format: functional; settings: HL-60, 48 h

SMILES | IC50 [1] [µM] | IC50 [2] [µM] | other results
O[C@@H](c1ccccc1)[C@H]1CO[C@H](c2ccccc2)[C@@H](C/C=C/c2ccccc2F)C1 | 9.53 | 9.73 | 
COc1ccc(/C=C/C[C@H]2C[C@H]([C@H](O)c3ccc(OC)c(OC)c3)CO[C@@H]2c2ccc(OC)c(OC)c2)cc1OC | 23.5 | 34.6 | 
COc1ccc(/C=C/C[C@@H]2C[C@@H]([C@@H](O)c3ccc(OC)c(OC)c3)CO[C@H]2c2ccc(OC)c(OC)c2)cc1OC | 26 | 30.6 | 
COc1ccc(CCC[C@H]2C[C@@H]([C@@H](O)c3ccc(OC)c(OC)c3)CO[C@@H]2c2ccc(OC)c(OC)c2)cc1OC |  | 37.7 | 
COc1ccc(/C=C/C[C@H]2C[C@@H]([C@@H](OC(C)=O)c3ccc(OC)c(OC)c3)CO[C@@H]2c2ccc(OC)c(OC)c2)cc1OC |  | > 100 | inhibition at 100 µM [3]: 29%
COc1ccc(/C=C/C[C@H]2C[C@@H]([C@@H](OC)c3ccc(OC)c(OC)c3)CO[C@@H]2c2ccc(OC)c(OC)c2)cc1OC |  | > 100 | inhibition at 100 µM [3]: 4.8%
COc1ccc([C@H]2OC[C@H]([C@@H](O)c3ccc(OC)c(OC)c3)C[C@@H]2C/C=C/c2ccc(OC)c(OC)c2)cc1 |  | 46.7 | 
COc1cccc([C@H]2OC[C@H]([C@@H](O)c3ccc(OC)c(OC)c3)C[C@@H]2C/C=C/c2ccc(OC)c(OC)c2)c1 |  | 21.8 | 
COc1ccc(/C=C/C[C@H]2C[C@@H]([C@@H](O)c3ccc(OC)c(OC)c3)CO[C@@H]2c2ccccc2)cc1OC |  | 17 | 
COc1ccc([C@H](O)[C@H]2CO[C@H](c3ccc(OC)c(OC)c3)[C@@H](C/C=C/c3ccc(OC)c(OC)c3)C2)cc1 |  | 46 | 
COc1cccc([C@H](O)[C@H]2CO[C@H](c3ccc(OC)c(OC)c3)[C@@H](C/C=C/c3ccc(OC)c(OC)c3)C2)c1 |  | 21.2 | 
COc1ccc(/C=C/C[C@H]2C[C@@H]([C@@H](O)c3ccccc3)CO[C@@H]2c2ccc(OC)c(OC)c2)cc1OC |  | 15.5 | 
COc1ccc(/C=C/C[C@H]2C[C@@H]([C@@H](O)c3ccc(OC)c(OC)c3)CO[C@@H]2c2ccc(OC)c(OC)c2)cc1 |  | 12.2 | 
COc1cccc(/C=C/C[C@H]2C[C@@H]([C@@H](O)c3ccc(OC)c(OC)c3)CO[C@@H]2c2ccc(OC)c(OC)c2)c1 |  | 14 | 
COc1ccc([C@H]2OC[C@H]([C@@H](O)c3ccc(OC)c(OC)c3)C[C@@H]2C/C=C/c2ccccc2)cc1OC |  | 14.8 | 
C=CC[C@H]1C[C@@H]([C@@H](O)c2ccccc2)CO[C@@H]1c1ccccc1 | 36 | 25.4 | 
O[C@@H](c1ccccc1)[C@H]1CO[C@H](c2ccccc2)[C@@H](C/C=C/c2ccccc2)C1 | 7.04 | 6.06 | Ratio IC50 [4]: 1.5
O[C@@H](c1ccccc1)[C@H]1CO[C@H](c2ccccc2)[C@@H](C/C=C/c2ccccn2)C1 | 36.4 | 33.8 | 
O[C@@H](c1ccccc1)[C@H]1CO[C@H](c2ccccc2)[C@@H](C/C=C/c2cccnc2)C1 | > 100 | > 100 | inhibition at 100 µM [5]: 48%; inhibition at 100 µM [3]: 4%
O[C@@H](c1ccccc1)[C@H]1CO[C@H](c2ccccc2)[C@@H](C/C=C/c2ccncc2)C1 | > 100 | > 100 | inhibition at 100 µM [5]: 13%; inhibition at 100 µM [3]: 34%
Oc1ccccc1/C=C/C[C@H]1C[C@@H]([C@@H](O)c2ccccc2)CO[C@@H]1c1ccccc1 | 10.8 | 21.8 | 
Oc1cccc(/C=C/C[C@H]2C[C@@H]([C@@H](O)c3ccccc3)CO[C@@H]2c2ccccc2)c1 | 12.8 | 18.6 | 
Oc1ccc(/C=C/C[C@H]2C[C@@H]([C@@H](O)c3ccccc3)CO[C@@H]2c2ccccc2)cc1 | 7.38 | 14.4 | 
COc1ccccc1/C=C/C[C@H]1C[C@@H]([C@@H](O)c2ccccc2)CO[C@@H]1c1ccccc1 | 10.1 | 14.7 | 
COc1cccc(/C=C/C[C@H]2C[C@@H]([C@@H](O)c3ccccc3)CO[C@@H]2c2ccccc2)c1 | 9.62 | 10.9 | 

SMILES | IC50 [1] [µM] | IC50 [2] [µM] | other results
COc1ccc(/C=C/C[C@H]2C[C@@H]([C@@H](O)c3ccccc3)CO[C@@H]2c2ccccc2)cc1 | 9.01 | 8.3 | 
O[C@@H](c1ccccc1)[C@H]1CO[C@H](c2ccccc2)[C@@H](C/C=C/c2cccc(F)c2)C1 | 9.17 | 8.38 | 
O[C@@H](c1ccccc1)[C@H]1CO[C@H](c2ccccc2)[C@@H](C/C=C/c2ccc(F)cc2)C1 | 8.11 | 8.34 | 
O=[N+]([O-])c1ccccc1/C=C/C[C@H]1C[C@@H]([C@@H](O)c2ccccc2)CO[C@@H]1c1ccccc1 | 7.25 | 11.8 | 
O=[N+]([O-])c1cccc(/C=C/C[C@H]2C[C@@H]([C@@H](O)c3ccccc3)CO[C@@H]2c2ccccc2)c1 | 6.35 | 7.85 | 
O=[N+]([O-])c1ccc(/C=C/C[C@H]2C[C@@H]([C@@H](O)c3ccccc3)CO[C@@H]2c2ccccc2)cc1 | 4.88 | 12.4 | 
Cc1ccc(/C=C/C[C@H]2C[C@@H]([C@@H](O)c3ccccc3)CO[C@@H]2c2ccccc2)cc1C | 9.88 | 10 | 
O[C@@H](c1ccccc1)[C@H]1CO[C@H](c2ccccc2)[C@@H](C/C=C/C2CCCC2)C1 | 9.06 | 9.33 | 
O[C@@H](c1ccccc1)[C@H]1CO[C@H](c2ccccc2)[C@@H](C/C=C/C2CCCCC2)C1 | 6.26 | 6.44 | 
CCCCCC/C=C/C[C@H]1C[C@@H]([C@@H](O)c2ccccc2)CO[C@@H]1c1ccccc1 | 4.99 | 7.4 | 
COc1ccc(CCC[C@@H]2C[C@@H]([C@@H](O)c3ccc(OC)c(OC)c3)CO[C@H]2c2ccc(OC)c(OC)c2)cc1OC |  | 35.7 | 
COc1ccc(/C=C/C[C@@H]2C[C@@H]([C@@H](OC(C)=O)c3ccc(OC)c(OC)c3)CO[C@H]2c2ccc(OC)c(OC)c2)cc1OC |  | > 100 | inhibition at 100 µM [3]: 48%
COc1ccc(/C=C/C[C@@H]2C[C@@H]([C@@H](OC)c3ccc(OC)c(OC)c3)CO[C@H]2c2ccc(OC)c(OC)c2)cc1OC |  | > 100 | inhibition at 100 µM [3]: 34%
COc1ccc([C@@H]2OC[C@H]([C@@H](O)c3ccc(OC)c(OC)c3)C[C@H]2C/C=C/c2ccc(OC)c(OC)c2)cc1 |  | 29.2 | 
COc1cccc([C@@H]2OC[C@H]([C@@H](O)c3ccc(OC)c(OC)c3)C[C@H]2C/C=C/c2ccc(OC)c(OC)c2)c1 |  | 30.1 | 
COc1ccc(/C=C/C[C@@H]2C[C@@H]([C@@H](O)c3ccc(OC)c(OC)c3)CO[C@H]2c2ccccc2)cc1OC |  | 16.1 | 
COc1ccc([C@H](O)[C@H]2CO[C@@H](c3ccc(OC)c(OC)c3)[C@H](C/C=C/c3ccc(OC)c(OC)c3)C2)cc1 |  | 32.2 | 
COc1cccc([C@H](O)[C@H]2CO[C@@H](c3ccc(OC)c(OC)c3)[C@H](C/C=C/c3ccc(OC)c(OC)c3)C2)c1 |  | 18.6 | 
COc1ccc(/C=C/C[C@@H]2C[C@@H]([C@@H](O)c3ccccc3)CO[C@H]2c2ccc(OC)c(OC)c2)cc1OC |  | 16.8 | 
COc1ccc(/C=C/C[C@@H]2C[C@@H]([C@@H](O)c3ccc(OC)c(OC)c3)CO[C@H]2c2ccc(OC)c(OC)c2)cc1 |  | 17.1 | 
COc1cccc(/C=C/C[C@@H]2C[C@@H]([C@@H](O)c3ccc(OC)c(OC)c3)CO[C@H]2c2ccc(OC)c(OC)c2)c1 |  | 16.4 | 
COc1ccc([C@H](O)[C@H]2CO[C@@H](c3ccc(OC)c(OC)c3)[C@H](C/C=C/c3ccccc3)C2)cc1OC |  | 16.1 | 
COc1ccc(/C=C/C[C@H]2C[C@@H]([C@@H](O)c3ccc(OC)c(OC)c3)CO[C@@H]2c2ccc(OC)c(OC)c2)cc1OC | 34.7 | 23.8 | 
COc1ccc(/C=C/C[C@@H]2C[C@H]([C@H](O)c3ccc(OC)c(OC)c3)CO[C@H]2c2ccc(OC)c(OC)c2)cc1OC |  | 28.7 | 
